How the values were obtained:
[1] = system: tumor growth; conditions: in vitro and in vivo models; cited from earlier work
[2] = system: WI-38 fibroblasts; assay: doxorubicin exposure, induction of cell senescence; format: cell-based, human; conditions: exposure to doxorubicin, FIG. 2
Method: To illustrate the relationship between the TOR pathway and cell senescence, experiments were performed using WI-38 fibroblasts, a cell line that is commonly used to investigate cell senescence (Sarraj et al., 2001). […] Cell senescence is characterized by a large and flat cell morphology, beta-galactosidase expression in the cytoplasm as a terminal, non-replicative condition.

[3] = system: rodents; conditions: rodents (Anisimov et al., 2005); cited from earlier work
[4] = rapamycin administration (Kahan, 2004; Rodriguez et al., 2006); cited from earlier work

Compound: CO[C@H]1C[C@@H]2CC[C@@H](C)[C@@](O)(O2)C(=O)C(=O)N2CCCC[C@H]2C(=O)O[C@H]([C@H](C)C[C@@H]2CC[C@@H](OC(=O)C(C)(CO)CO)[C@H](OC)C2)CC(=O)[C@H](C)/C=C(\C)[C@@H](O)[C@@H](OC)C(=O)[C@H](C)C[C@H](C)/C=C/C=C/C=C/1C [CCI-779, Rapamycin 42-ester with 3-hydroxy-2-(hydroxymethyl)-2-methylpropionic acid]
- effect on tumor growth [1]: significant inhibitory effects on tumor growth

Compound: COc1cccc2c1C(=O)c1c(O)c3c(c(O)c1C2=O)C[C@@](O)(C(=O)CO)C[C@@H]3O[C@H]1C[C@H](N)[C@H](O)[C@H](C)O1 [doxorubicin]
- induction of cell senescence [2]: induces accelerated cell senescence

Compound: CN(C)C(=N)N=C(N)N [metformin]
- life span [3]: extend life span

Compound: [H]/N=C(/N)N/C(=N/[H])NCCc1ccccc1 [phenformin]
- life span [3]: extend life span

Compound: CO[C@H]1C[C@@H]2CC[C@@H](C)[C@@](O)(O2)C(=O)C(=O)N2CCCC[C@H]2C(=O)O[C@H]([C@H](C)C[C@@H]2CC[C@@H](O)[C@H](OC)C2)CC(=O)[C@H](C)/C=C(\C)[C@@H](O)[C@@H](OC)C(=O)[C@H](C)C[C@H](C)/C=C/C=C/C=C/1C [rapamycin]
- most common side effect [4]: increase of blood lipids

Reference: US20130310416A1, “Methods and Compositions for Preventing or Treating Age-Related Diseases” (Tartis-Aging, LLC, priority 2006, published 2013)
